Assay results as given in patent publication US9884857B2, “Salts of dasatinib in amorphous form” (BASF SE, priority 2013, dated 2018).

Assays:
[1] = after two hours equilibration at 25° C.; resulting pH value 4.6
Procedure: Solubility Determinations:
Solubility determinations are carried out in pure water at 25±2° C. Suspensions with about 10 mg salt in 0.5 mL water are prepared and equilibrated for two hours before the solution phase is filtered off and tested by HPLC.
HPLC is carried out on an Agilent 1100 HPLC chromatograph equipped with a UV-vis detection unit. […] The column type used is a Waters XTerra MS C18, 250×4.6 mm, 5 μm (FK-CC14). The method as referenced above is an isocratic method using an aqueous ammonium acetate/acetic acid and methanol with a ratio of 55/45. The applied flow rate is 1.0 mL per minute, the injection volume is 20 microliter and the detection wavelength is 321 nm.

[2] = 11 months of storage at room temperature (Example 1: closed glass vial)
Procedure: Powder X-Ray Diffraction:
The measurements are carried out with a Bruker D8 Advance powder X-ray diffractometer using Cu Kα radiation in the Bragg-Brentano reflection geometry. Generally, the 2θ values are accurate within an error of ±0.1-0.2°. The relative peak intensities can vary considerably for different samples of the same crystalline form because of different preferred orientations of the crystals. The samples are prepared without any special treatment other than the application of slight pressure to get a flat surface. Generally, silicon single crystal sample holders of 0.1 mm, 0.5 mm or 1.0 mm depth are used. The tube voltage and current are 40 kV and 40 mA, respectively. The X-ray diffractometer is equipped with a LynxEye detector. A variable divergence slight is used with a 3° window. The step size is 0.02° 2θ with a step time of 37 seconds. The samples are rotated at 0.5 rps during the measurement.

[3] = heating rate 10° C. per minute, dried sample
Procedure: Differential scanning calorimetry: DSC is carried out with a TA Instruments DSC Q2000 using hermetically sealed gold sample pans. The heating rate is 10° C. per minute. Samples are dried under nitrogen before sample pans are closed under nitrogen.

SMILES	aqueous solubility [1] [µg/mL]	crystalline material by powder X-ray diffraction after storage [2]	glass transition (DSC step) [3]
Cc1nc(Nc2ncc(C(=O)Nc3c(C)cccc3Cl)s2)cc(N2CCN(CCO)CC2)n1.O=C1NS(=O)(=O)c2ccccc21 [Example 1, Dasatinib saccharinate]	1330	no crystalline material was present	~130 °C
Cc1nc(Nc2ncc(C(=O)Nc3c(C)cccc3Cl)s2)cc(N2CCN(CCO)CC2)n1.O=C(O)CCCC(=O)O [Example 2, Dasatinib glutarate]		no crystalline material is present	
Cc1nc(Nc2ncc(C(=O)Nc3c(C)cccc3Cl)s2)cc(N2CCN(CCO)CC2)n1.O=C(O)c1cccnc1 [Example 3, Dasatinib nicotinate]		no crystalline material is present	
Cc1nc(Nc2ncc(C(=O)Nc3c(C)cccc3Cl)s2)cc(N2CCN(CCO)CC2)n1.O=C1NS(=O)(=O)c2ccccc21 [Example 4, Dasatinib saccharinate]			about 113 °C
